Source: PubChem BioAssay AID1963597 (National Center for Advancing Translational Sciences (NCATS), 2024)

System: human liver microsomes, metabolic stability half-life
Assay: NCATS Human Liver Microsomal (HLM) Stability Profiling
Settings: higher = more stable; screened at 1 µM (by protocol)
Method in brief: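 Substrate depletion (in vitro t1/2): 1 µM compound with 0.5 mg/mL microsomes and NADPH regenerating system, phosphate buffer pH 7.4, 37 °C. Sampled at 0, 5, 10, 15, 30, 60 min into cold acetonitrile with albendazole internal standard for MS quantification.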

Row | SMILES | half-life [min]
1 | CCOC(=O)C1=Cc2ccc(C(F)(F)C(F)(F)F)cc2N=C(N)C1 | 9.93
2 | CN(C(=O)C(c1ccccc1)c1ccccc1)[C@H](CN1CC[C@H](O)C1)c1ccccc1 | 9.29
3 | CCCCC(=O)OCC(=O)[C@H]1[C@H](C)C[C@H]2[C@@H]3C[C@H](F)C4=CC(=O)C=C[C@]4(C)[C@@]3(F)[C@@H](O)C[C@@]21C | 5.18
4 | Oc1cccc(C2NC(=S)Nc3cccc(F)c32)c1 (stereo not given) | > 120
5 | O=C(CCBr)N1CCN(C(=O)CCBr)CC1 | > 120
6 | C[C@@H](N)c1ccc(C(=O)Nc2ccnc3[nH]ccc23)cc1 | > 120
7 | O=C(NN1CCCC1)NS(=O)(=O)c1ccc(Cl)cc1 | > 120
8 | CS(=O)(=O)c1ccc([C@@H](O)[C@@H](CO)NC(=O)C(Cl)Cl)cc1 | > 120
9 | CC(=O)N1CCN(c2ccc(O)cc2)CC1 | > 120
10 | OCCCNc1cc(-c2ccnc(Nc3cccc(Cl)c3)n2)ccn1 | 24.5
11 | COc1ccccc1N1CCN(c2csc3ccc(Cl)cc3c2=O)CC1 | 15.7
12 | CCCn1cc2c(nc(NC(=O)Nc3ccc(OC)cc3)n3nc(-c4ccco4)nc23)n1 | > 120
13 | Cc1ccc([S+](=O)([O-])NC2CCC(C)(C)CC2)cc1 | 4.82
14 | NC(=O)c1cnc(N[C@@H]2CCCC[C@H]2N)nc1Nc1cccc(-n2nccn2)c1 | 90.7
15 | COP(=O)(OC)Oc1ccc([N+](=O)[O-])cc1 | 13.3
16 | Cc1cccc(N2CCN(C(=O)c3cn(C4CCCCC4)c(=O)c4c3c3ccccc3n4C)CC2)c1C | 0.76
17 | N#Cc1ccc(C(=O)Nc2ccc(Cl)c(-c3nc4cc(Cl)ccc4o3)c2)c(F)c1 | 15.4
18 | C/C=C(/C(=C/C)c1ccc(OC(C)=O)cc1)c1ccc(OC(C)=O)cc1 | > 120
19 | CS(=O)(=O)c1cccc(CNc2nc(Nc3ccc4c(c3)CCC(=O)N4)ncc2C(F)(F)F)c1 | > 120
20 | CCN(CC)C(=O)C(c1ccccc1)N1CCN(c2ccc(NC(=O)c3ccccc3-c3cccnc3)cc2F)CC1 (stereo not given) | 4.93
21 | N#Cc1cccc(C(=O)Nc2cc(-c3ccccc3)nn2-c2ccccc2)c1 | 18.7
22 | CN1[C@@H]2CC[C@H]1CC(OC(=O)c1c[nH]c3ccccc13)C2 (stereo not given in full) | > 120
23 | CCN1CCCC1=O | > 120
24 | COc1cc(OC)cc(OC)c1 | 18.1
25 | COC(=O)c1cc(S(N)(=O)=O)ccc1OC | 43.2
26 | CCn1ccnc1C[C@@H]1COc2ccccc2O1 | 55.3
27 | CN1CCN(C(=O)c2ccc(Nc3nccc(-c4cccs4)n3)cc2Cl)CC1 | 19.2

Row | SMILES | half-life [min]
28 | Cc1cc(C)c(/C=C2\C(=O)Nc3ccccc32)[nH]1 | 11
29 | CC(C)(C)c1cnc(CSc2cnc(NC(=O)C3CCNCC3)s2)o1 | > 120
30 | COc1cc(C)c(/C=C/C(C)=C/C=C/C(C)=C/C(=O)O)c(C)c1C | 32
31 | O=C(O)c1cccc(-c2noc(-c3ccccc3F)n2)c1 | > 120
32 | C=C1CCN([C@H](C)[C@](O)(Cn2cncn2)c2ccc(F)cc2F)CC1 | 10
33 | CC1COC2(c3ccccc3Cl)c3cc(Cl)ccc3NC(=O)CN12 (stereo not given) | 9.03
34 | CCOc1ccc(NC(=O)Cn2cc(C(=O)c3cccs3)c3ccccc32)cc1 | 10.5
35 | CCc1ccc(NC(=O)N2CCN(c3nnc(C)c4c(C)n(-c5ccc(Cl)cc5)nc34)CC2)cc1 | 25.5
36 | CCN(CC)C(=O)/C(Cl)=C(\C)OP(=O)(OC)OC | > 120
37 | CC(=O)Nc1nnc(S(N)(=O)=O)s1 | > 120
38 | CCOCCCNC(=O)C(=O)Nc1c2c(nn1-c1ccc(OC)cc1)CSC2 | 42.3
39 | CC(C)(C)c1ccc(S(=O)(=O)c2cnc(SCC(=O)Nc3ccc(F)c(Cl)c3)[nH]c2=O)cc1 | 73.1
40 | C=CC(=O)Nc1ccc2ncnc(Nc3cccc(Br)c3)c2c1 | 12.5
41 | C=Cc1cc(O)cc2nc(-c3ccc(O)c(F)c3)oc12 | 5.84
42 | Cc1ccc(S(=O)(=O)NC(=O)NC2CCCCC2)cc1 | > 120
43 | NC(=O)[C@H]1CCS[C@@H]2C[C@]3(CCCN3C(=O)Cc3ccc(NC(=O)COc4ccc(Cl)cc4Cl)cc3)C(=O)N12 | 7.68
44 | Cc1ccc(Nc2nc3ccccc3c3nnc(C)n23)c(C)c1 | 6.47
45 | CC(=O)NC[C@H]1CN(c2ccc(N3CCSCC3)c(F)c2)C(=O)O1 | > 120
46 | CNP(=O)(OC)Oc1ccc(C(C)(C)C)cc1Cl (stereo not given) | 47.5
47 | Clc1ccc2c(c1)Nc1ccccc1S2 | 6.28
48 | COc1ccc(C(=O)Oc2ccc(C(c3c(C)[nH][nH]c3=O)c3c(C)[nH][nH]c3=O)cc2)cc1 | 1.55
49 | Oc1cccc(O)c1O | > 120
50 | Cc1ccc(Cl)cc1N1CCN(C(=O)c2cn(C3CCCCC3)c(=O)c3c2c2ccccc2n3C)CC1 | 0.92
51 | O=C(C1CCCCC1)N1CC(=O)N2CCCc3ccccc3C2C1 (stereo not given) | 20.8
52 | COc1ccc(Cn2c(SCC(=O)N3CCN(c4ccc(F)cc4)CC3)nc3ccccc32)cc1 | 2.2
53 | CCCc1nc(C(C)(C)O)c(C(=O)O)n1Cc1ccc(-c2ccccc2-c2nn[nH]n2)cc1 | > 120
54 | COc1ccc(CNc2nc(N(CCO)CCO)nc3c2ncn3C(C)C)cc1 | 35.6

Row | SMILES | half-life [min]
55 | Cc1ccc(NC(=O)Cn2c(=O)n(CCC(=O)N3CCc4ccccc4C3)c(=O)c3ccccc32)c(C)c1 | 1.41
56 | CC1CC(C)(C)N(C(=O)CN2C(=O)c3ccccc3C2=O)c2ccccc21 (stereo not given) | 8.38
57 | Cc1nnc(C(C)C)n1C1CC2CCC(C1)N2CCC(NC(=O)C1CCC(F)(F)CC1)c1ccccc1 (stereo not given) | > 120
58 | C=C1CC[C@@]2(O)[C@H]3Cc4ccc(O)c5c4[C@@]2(CCN3CC2CC2)[C@H]1O5 | > 120
59 | N#Cc1ccc(-c2ccc(S(=O)(=O)Nc3cccc(N)n3)cc2)cc1 | > 120
60 | COc1ccc(OCC(=O)Nc2cc(-c3nc4ccccc4s3)ccc2C)cc1 | 3.38
61 | Cc1cccc(N2CCN(C(=O)CCC(=O)NNc3nc4ccccc4c4nc(C)nn34)CC2C)c1 (stereo not given) | 6.71
62 | COc1cc2ncnc(Nc3cc(Br)c(O)c(Br)c3)c2cc1OC | > 120
63 | O=C(O)Cn1nnc(-c2cc(N3CCC(Oc4cc(F)ccc4Br)CC3)no2)n1 | > 120
64 | CCc1cc(-c2n[nH]c(C)c2-c2ccc3c(c2)OCCO3)c(O)cc1O | 13.4
65 | CN1CC(O)c2cc(N=NC(N)=O)c(O)cc21 (stereo not given) | > 120
66 | CC(C)CCn1c(CN2CCN(C(=O)C(C)C)CC2)nc2c1c(=O)n(C)c(=O)n2C | 70.7
67 | CC1=C(CC(=O)O)c2cc(F)ccc2/C1=C\c1ccc(S(C)=O)cc1 (stereo not given) | > 120
68 | CCN1CCCC1CNC(=O)c1cc(S(=O)(=O)CC)c(N)cc1OC (stereo not given) | > 120
69 | Cc1ccc(C(=O)c2cc(O)c(O)c([N+](=O)[O-])c2)cc1 | 34.1
70 | COc1cc(C(=O)NC2CCCNC2)cc(OC)c1OC (stereo not given) | > 120
71 | CC(C)NC[C@H](O)c1ccc2ccccc2c1 | 18.8
72 | CNC(=O)c1cc(Oc2ccc(NC(=O)Nc3ccc(Cl)c(C(F)(F)F)c3)cc2)ccn1 | > 120
73 | O=C(N[C@H]1CN2CCC1CC2)c1cc2cccc(Cl)c2s1 | > 120
74 | O=C1CC[C@H](C(=O)N2CCCCC2)N1 | > 120
75 | COc1cc2c(c(OC)c1OC)-c1ccc(OC)c(=O)cc1[C@@H](NC(C)=O)CC2 | > 120
76 | CNC(=O)c1cnn(-c2nc(N)c3ncn([C@@H]4O[C@H](CO)[C@@H](O)[C@H]4O)c3n2)c1 | > 120
77 | Nc1ncnc2c1ncn2[C@@H]1O[C@H](CO)[C@@H](O)[C@@H]1O | > 120
78 | Cc1ccc(C(=O)NC2CCN(c3cnn(CC4CC4)c(=O)c3)CC2)cc1C | > 120
79 | COc1ccc(C(=O)N2CCCC2=O)cc1 | > 120
80 | C[C@@H]1C[C@H]2[C@@H]3CCC4=CC(=O)C=C[C@]4(C)[C@@]3(F)[C@@H](O)C[C@]2(C)[C@H]1C(=O)CO | 57.3
81 | CCOC(=O)NNc1nncc2ccccc12 | 97.1

Row | SMILES | half-life [min]
82 | CC1=C(c2ccc(NC(=O)c3c(F)cccc3F)cc2)CN(c2nccs2)CC1 | 38.9
83 | O=C(c1ccc(F)cc1)C1CCN(CCn2c(=S)[nH]c3ccccc3c2=O)CC1 | 8.98
84 | COc1cc(C(=S)N2CCOCC2)cc(OC)c1OC | > 120
85 | Cc1ccc(-c2c(-c3nn(C)c4ncnc(N5CCC(N6CCCCC6)C5)c34)cnn2C)cc1 (stereo not given) | > 120
86 | Cn1cc(-c2[nH]c3cc(NC(=O)[C@H](N)C4CCCCC4)cc4c3c2C=NNC4=O)cn1 | 102
87 | Cc1cccc(N2CCN(C(=O)c3cccn3-c3nnc(N4CCCCC4)s3)CC2)c1C | 3.17
88 | COc1ccc(-c2cc(=S)ss2)cc1 | 0.73
89 | CC(=O)[C@@]1(O)CC[C@H]2C3CCC4=CC(=O)CC[C@]4(C)C3CC[C@@]21C (stereo not given in full) | 9.86
90 | CCCn1cnc2c1c(=O)n(CCCCC(C)=O)c(=O)n2C | > 120
91 | Clc1ccc(C2(c3ccc(-c4cn[nH]c4)cc3)CCNCC2)cc1 | > 120
92 | CN(C)S(=O)(=O)c1ccc(S(=O)(=O)N(Cc2ccccc2Cl)C[C@@H]2CCCO2)cc1 | 1.28
93 | CCCOC(C(=O)OC1CCN(C)CC1)(c1ccccc1)c1ccccc1 | 11.3
94 | CCNP(=S)(OC)O/C(C)=C/C(=O)OC(C)C (stereo not given) | > 120
95 | CC(C)C[C@H]1C(=O)N2CCC[C@H]2[C@]2(O)O[C@](NC(=O)[C@@H]3C=C4c5cccc6[nH]c(Br)c(c56)CC4N(C)C3)(C(C)C)C(=O)N12 (stereo not given in full) | 0.89
96 | CCOc1cc(OCC)c(C(=O)CCC(=O)O)cc1OCC | > 120
97 | COC(=O)/C=C\C(=O)OC | > 120
98 | Nc1cc(=O)[nH]c(N)n1 | 99.2
99 | CN(C)N(C)C(=O)[C@@]1(Cc2ccccc2)CCCN(C(=O)[C@@H](Cc2c[nH]c3ccccc23)NC(=O)C(C)(C)N)C1 | 12.6
100 | Cc1ccc(Nc2nc(C)c(NC(=O)c3ccc(C)cc3)c(Nc3ccc(C)cc3)n2)cc1 | 20.5
101 | Cc1nn2c(c1-c1ccccc1Oc1ccccc1)N(Cc1cccc(C#N)c1)CCC2 | 0.77
102 | C=CC1=C(C(=O)O)N2C(=O)[C@@H](NC(=O)/C(=N\OCC(=O)O)c3csc(N)n3)[C@H]2SC1 | > 120
103 | CCOc1ccc(S(=O)(=O)N2CCCCCC2)c2ccccc12 | 6.52
104 | CCCCCCCCCCCCCCCCCCN(C)C | > 120
105 | CCOC(=O)[C@H](CCc1ccccc1)N[C@H]1CCc2ccccc2N(CC(=O)O)C1=O | 18.6
